According to patent publication US11607420B2, “Formulation” (DSM IP ASSETS B.V., priority 2018, dated 2023):

Assay: Absorption of aqueous solution after dissolving powder in water (riboflavin coloration/release)
Type: physicochemical
Conditions: powder containing 10 mg riboflavin in 1000 ml water for 15 min; measured at 545 nm, spectrophotometer
Description: 20 mg of coated powder (containing 10 mg of Riboflavin) was dissolved in 1000 ml water for 15 min. Absorption of the solution was measured at 545 nm using a spectrophotometer (Genesys 20, thermo Scientific). Absorption of the solution was 0.065.
10 mg of riboflavin powder was dissolved in 1000 ml water for 15 min. Absorption of the solution was measured at 545 nm using a spectrophotometer (Genesys 20, thermo Scientific). Absorption of the solution was 0.386.
16.6 mg of coated powder (containing 10 mg of Riboflavin) was dissolved in 1000 ml water for 15 min. Absorption of the solution was measured at 545 nm using a spectrophotometer (Genesys 20, thermo Scientific). Absorption of the solution was 0.087.

Absorption of the solution: 0.386
Compound: Cc1cc2nc3c(=O)[nH]c(=O)nc-3n(C[C@H](O)[C@H](O)[C@H](O)CO)c2cc1C [Comparison Example 2, riboflavin]
